# Measurements: the Kinase Knowledgebase extract (Sharma et al. 2016)
# Biological target: PIK3CA (human) (UniProt P42336)
# Experiment: Assessment of PIK3CA Kinase Activity
# PIK3CA (human), sequence (P42336 whole entry, looked up): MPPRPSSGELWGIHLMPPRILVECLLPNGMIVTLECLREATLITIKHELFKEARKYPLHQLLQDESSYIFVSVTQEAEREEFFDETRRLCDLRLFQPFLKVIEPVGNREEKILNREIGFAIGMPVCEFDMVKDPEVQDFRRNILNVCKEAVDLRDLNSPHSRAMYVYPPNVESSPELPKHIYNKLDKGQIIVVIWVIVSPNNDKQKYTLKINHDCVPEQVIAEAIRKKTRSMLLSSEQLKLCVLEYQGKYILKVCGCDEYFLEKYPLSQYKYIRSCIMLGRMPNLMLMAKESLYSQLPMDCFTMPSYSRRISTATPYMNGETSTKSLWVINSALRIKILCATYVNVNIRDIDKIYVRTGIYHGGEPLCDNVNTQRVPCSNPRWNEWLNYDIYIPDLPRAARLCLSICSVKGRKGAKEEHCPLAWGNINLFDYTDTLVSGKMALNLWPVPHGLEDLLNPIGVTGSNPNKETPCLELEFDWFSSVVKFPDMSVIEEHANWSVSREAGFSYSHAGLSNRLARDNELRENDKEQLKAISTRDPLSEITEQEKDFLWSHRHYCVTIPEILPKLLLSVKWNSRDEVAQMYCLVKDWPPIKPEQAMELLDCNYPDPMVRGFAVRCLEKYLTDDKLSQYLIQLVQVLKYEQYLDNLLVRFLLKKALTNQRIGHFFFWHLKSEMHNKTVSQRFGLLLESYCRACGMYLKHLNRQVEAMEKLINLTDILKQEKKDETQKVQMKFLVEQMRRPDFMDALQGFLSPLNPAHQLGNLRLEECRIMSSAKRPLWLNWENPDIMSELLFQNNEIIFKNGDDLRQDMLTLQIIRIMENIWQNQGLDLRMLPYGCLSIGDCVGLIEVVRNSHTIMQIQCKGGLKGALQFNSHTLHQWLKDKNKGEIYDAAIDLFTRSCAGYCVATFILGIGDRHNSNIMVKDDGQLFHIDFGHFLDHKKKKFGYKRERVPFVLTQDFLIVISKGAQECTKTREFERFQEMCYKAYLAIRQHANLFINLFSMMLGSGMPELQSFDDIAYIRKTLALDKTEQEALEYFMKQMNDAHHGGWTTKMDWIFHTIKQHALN
row,IC50,SMILES
1,< 1 µM,CC(C)n1ncnc1-c1cc2n(n1)-c1cc(C(=O)NC3CNC3)ccc1OCC2
2,< 1 µM,Cc1nc(-c2cn3c(n2)-c2ccc(-c4cnc(N)nc4)cc2OCC3)n(C(C)C)n1
3,< 1 µM,NC(=O)CN1CCC(c2ccc3c(c2)-c2nn(-c4ncnn4-c4ccc(F)cc4F)cc2CCO3)CC1
4,< 1 µM,Clc1ccccc1-n1ncnc1-c1cn2c(n1)-c1cc(-c3cncnc3)ccc1OCC2
5,< 1 µM,CC(C)n1ncnc1-n1cc2c(n1)-c1ccc(-c3cnn(CCO)c3)cc1OCC2
6,< 1 µM,CC(C)n1ncnc1-c1cn2c(n1)-c1ccc(N3CC[C@H]3C(N)=O)cc1OCC2
7,< 1 µM,CC(C)n1ncnc1-c1cn2c(n1)-c1cnc(N3CCNC(=O)C3)cc1OCC2
8,< 1 µM,CC(C)N1CC(NC(=O)c2ccc3c(c2)-n2nc(-c4ncnn4C(C)C)cc2CCO3)C1
9,< 1 µM,CC(C)n1ncnc1-c1cn2c(n1)-c1ccc([C@H]3CCNC[C@@H]3O)cc1OCC2
10,< 1 µM,CC(C)n1ncnc1-c1cn2c(n1)-c1ccc(C3CCN(CC(=O)N(C)C)CC3)cc1OCC2
11,< 1 µM,Cc1nc(-c2cn3c(n2)-c2ccc(CNCC(C)(C)O)cc2OCC3)n(-c2ccc(F)cc2F)n1
12,< 1 µM,CNC(=O)CN1CCC(c2ccc3c(c2)OCCn2cc(-c4ncnn4C(C)C)nc2-3)CC1
13,< 1 µM,CC(C)n1nc(CN(C)C)nc1-c1cn2c(n1)-c1ccccc1OCC2
14,< 1 µM,CC(C)n1ncnc1-c1cn2c(n1)-c1ccc(N3CCC[C@@H]3C(N)=O)cc1OCC2
15,< 1 µM,CC(C)n1ccnc1-c1cn2c(n1)-c1cnccc1OCC2
16,< 1 µM,Cc1nc(-c2cn3c(n2)-c2cnc(NCC(=O)O)cc2OCC3)n(C(C)C)n1
17,< 1 µM,Cc1nc(-c2cn3c(n2)-c2cnc(N)cc2OCC3)n(C(C)C)n1
18,< 1 µM,CC(C)n1ncnc1-c1cn2c(n1)-c1ccc(C3CN(C(C)(C)C(N)=O)C3)cc1OCC2
19,< 1 µM,CNC(=O)c1ccc2c(c1)OCCn1cc(-c3ncnn3CC(F)(F)F)nc1-2
20,< 1 µM,CNC(=O)C(C)(C)N1CCC(c2ccc3c(c2)OCCn2cc(-c4ncnn4C(C)C)nc2-3)C(O)C1 (stereo not given)
21,< 1 µM,CC(C)n1ncnc1-c1cn2c(n1)-c1cnc(N3CCN(CC(=O)N(C)C)CC3)cc1OCC2
22,< 1 µM,CC(C)n1nc(N)nc1-c1cn2c(n1)-c1cc(C(F)(F)F)ccc1OCC2
23,< 1 µM,CNC(=O)[C@@H]1CCCN1c1cc2c(cn1)-c1nc(-c3ncnn3C(C)C)cn1CCO2
24,< 1 µM,Cc1nc(-c2cn3c(n2)-c2ccc(-c4cnn(CCO)c4)cc2OCC3)n(C)n1

row,IC50,SMILES
1,< 1 µM,Cc1nc(-c2cn3c(n2)-c2ccc(OC4COC4)cc2OCC3)n(C(C)C)n1
2,< 1 µM,CC(C)n1ncnc1-c1cn2c(n1)-c1cc(NCC(O)CO)ncc1OCC2 (stereo not given)
3,< 1 µM,CC(C)n1ncnc1-c1cn2c(n1)-c1cc(C(=O)N3CCC(C(C)(C)O)CC3)ccc1OCC2
4,< 1 µM,Cc1nc(-c2cn3c(n2)-c2cc(-c4cc[nH]c(=O)c4)ccc2OCC3)n(C(C)C)n1
5,< 1 µM,CC(C)n1ncnc1-c1cc2n(n1)-c1cc(C(=O)N3CCC(O)CC3)ccc1OCC2
6,< 1 µM,CC(C)n1nc(N)nc1-c1cn2c(n1)-c1cc(F)ccc1OCC2
7,< 1 µM,Nc1nc(-c2cn3c(n2)-c2cc(-c4ccccc4)ccc2OCC3)n(-c2ccccc2Cl)n1
8,< 1 µM,CC(C)n1ncnc1-c1cn2c(n1)-c1cnc(NCC(O)c3nccn3C)cc1OCC2 (stereo not given)
9,< 1 µM,Cc1nc(-c2cn3c(n2)-c2cc(F)ccc2OCC3)n(C(C)C)n1
10,< 1 µM,CC(C)N(CCO)C(=O)c1cc2n(n1)-c1ccccc1OCC2
11,< 1 µM,CC(C)n1ncc(C#N)c1-c1cn2c(n1)-c1ccc(C(N)=O)cc1OCC2
12,< 1 µM,NC(=O)CNc1cc2c(cn1)-c1nc(-c3ncnn3CC(F)(F)F)cn1CCO2
13,< 1 µM,CC(C)n1nccc1-c1cn2c(n1)-c1ccc(C(N)=O)cc1OCC2
14,< 1 µM,C[C@H](Oc1ccc2c(c1)OCCn1cc(-c3ncnn3CC(F)(F)F)nc1-2)C(N)=O
15,< 1 µM,CC(C)[C@H](Oc1ccc2c(c1)OCCn1cc(-c3ncnn3CC(F)(F)F)nc1-2)C(N)=O
16,< 1 µM,COCCN1CCC(c2ccc3c(c2)OCCn2cc(-c4ncnn4C(C)C)nc2-3)CC1
17,< 1 µM,Cc1nc(-c2cn3c(n2)-c2ccc(-c4cnn(C5CN(CCO)C5)c4)cc2OCC3)n(C(C)C)n1
18,< 1 µM,CC(C)n1nc(N)nc1-c1cn2c(n1)-c1ccc(C#N)cc1OCC2
19,< 1 µM,CS(=O)(=O)CCNC(=O)c1ccc2c(c1)OCCn1cc(-c3ncnn3-c3ccccc3Cl)nc1-2
20,< 1 µM,CC(=O)N1CC(c2ccc3c(c2)-n2nc(-c4ncnn4C(C)C)cc2CCO3)C1
21,< 1 µM,C[C@H](Oc1ccc2c(c1)OCCn1cc(-c3ncnn3C(C)(C)C)nc1-2)C(N)=O
22,< 1 µM,C[C@H](Oc1ccc2c(c1)OCCn1cc(-c3ncnn3C3CC3)nc1-2)C(N)=O
23,< 1 µM,CCOc1ccccc1-c1cn2c(n1)-c1ccc(C(=O)OC)cc1OCC2
24,< 1 µM,Clc1ccc(-c2ccc3c(c2)OCCn2cc(-c4ncnn4-c4ccccc4Cl)nc2-3)cc1

row,IC50,SMILES
1,< 1 µM,CCc1ccccc1-c1cn2c(n1)-c1ccc(C(=O)OC)cc1OCC2
2,< 1 µM,CC(C)n1ncnc1-c1cn2c(n1)-c1ccc(O[C@@H](C)C(=O)O)cc1OCC2
3,< 1 µM,Cc1nc(-c2cn3c(n2)-c2ccc(-c4cncnc4)cc2OCC3)n(C(C)C)n1
4,< 1 µM,C[C@H](Oc1ccc2c(c1)OCCn1cc(-c3ncnn3-c3ccc(F)cc3F)nc1-2)C(N)=O
5,< 1 µM,Cc1nc(-c2cn3c(n2)-c2ccc(-c4cnn(CC(C)C(=O)O)c4)cc2OCC3)n(C(C)C)n1 (stereo not given)
6,< 1 µM,CC(C)n1ncnc1-c1cn2c(n1)-c1cnc(N3CCC[C@@H]3C(N)=O)cc1OCC2
7,< 1 µM,CNC(=O)c1ccc2c(c1)OCCn1cc(-c3ncnn3-c3ccccc3Cl)nc1-2
8,< 1 µM,CC(C)n1ncnc1-c1cn2c(n1)-c1ccc(N3CC(F)(F)C[C@H]3C(N)=O)cc1OCC2
9,< 1 µM,OCc1nc(-c2cn3c(n2)-c2cnc(N4CCCC4)cc2OCC3)n(CC(F)(F)F)n1
10,< 1 µM,CS(=O)(=O)c1ccccc1CNc1cc2c(cn1)-c1nc(-c3ncnn3-c3ccc(F)cc3F)cn1CCO2
11,< 1 µM,CC(C)n1ncnc1-c1cn2c(n1)-c1cnc(N3CC=C[C@@H]3C(N)=O)cc1OCC2
12,< 1 µM,NC(=O)C1(Oc2ccc3c(c2)OCCn2cc(-c4ncnn4CC(F)(F)F)nc2-3)CC1
13,< 1 µM,CC(C)n1ncnc1-c1cn2c(n1)-c1ccc(C(=O)NC(C)(C)CO)cc1OCC2
14,< 1 µM,CCc1ccc2c(c1)OCCn1cc(-c3nc(C)nn3C(C)C)nc1-2
15,< 1 µM,CC(C)(CO)NC(=O)c1ccc2c(c1)-c1nc(-c3nccn3-c3ccccc3Cl)cn1CCO2
16,< 1 µM,Cc1nc(-c2cn3c(n2)-c2cnc(N4C[C@H](F)C[C@H]4C(N)=O)cc2OCC3)n(C(C)C)n1
17,< 1 µM,Cc1nc(-c2cn3c(n2)-c2cnc(N)cc2OCC3)n(CC(F)(F)F)n1
18,< 1 µM,NC(=O)c1ccc2c(c1)OCCc1cn(-c3ncnn3-c3ccc(F)cc3F)nc1-2
19,< 1 µM,CC(C)n1cnnc1-n1cc2c(n1)-c1ccccc1OCC2
20,< 1 µM,Cc1ccc2c(c1)-c1nc(-c3nc(C)nn3C(C)C)cn1CCO2
21,< 1 µM,Cc1nc(-c2cn3c(n2)-c2ccc(N)cc2OCC3)n(C(C)C)n1
22,< 1 µM,Cc1nc(-c2ccc3c(c2)OCCn2cc(-c4ncnn4C(C)C)nc2-3)cn1CCOC1CCCCO1 (stereo not given)
23,< 1 µM,CC(C)n1nccc1-c1cn2c(n1)-c1ccc(CNC(N)=O)cc1OCC2
24,< 1 µM,CC(C)n1ncnc1-c1cn2c(n1)-c1ccc(OC(C(N)=O)C3CC3)cc1OCC2 (stereo not given)

row,IC50,SMILES
1,< 1 µM,CC(C)n1nc(N)nc1-c1cn2c(n1)-c1cc(-c3cncnc3)ccc1OCC2
2,< 1 µM,CC(C)n1ncnc1-c1cn2c(n1)-c1cnc(N3CCC[C@H]3C(N)=O)cc1OCC2
3,< 1 µM,CC(C)n1ncnc1-c1cc2n(n1)-c1cc(C3CN(CCS(C)(=O)=O)C3)ccc1OCC2
4,< 1 µM,CC(C)n1ccnc1-c1cn2c(n1)-c1cnc(N3CCC[C@H]3C(N)=O)cc1OCC2
5,< 1 µM,NC(=O)[C@@H]1CCCN1c1cc2c(cn1)-c1nc(-c3ncnn3C3CCCCC3)cn1CCO2
6,< 1 µM,COc1ccc2c(c1)OCCn1cc(-c3nc(C)nn3C(C)C)nc1-2
7,< 1 µM,CC(C)n1nc(C2CC2)nc1-c1cn2c(n1)-c1ccc(Br)cc1OCC2
8,< 1 µM,OCCn1cc(-c2ccc3c(c2)OCCn2cc(-c4ncnn4CC(F)(F)F)nc2-3)cn1
9,< 1 µM,COc1ccc(CNc2cc3c(cn2)-c2nc(-c4nc(C)nn4CC(F)(F)F)cn2CCO3)cc1OC
10,< 1 µM,Cc1nc(-c2ccc3c(c2)OCCn2cc(-c4ncnn4C(C)C)nc2-3)cn1C
11,< 1 µM,Cc1nc(-c2cn3c(n2)-c2ccc(OC(C)C)cc2OCC3)n(C(C)C)n1
12,< 1 µM,COC(=O)c1ccc2c(c1)OCCn1cc(-c3ncnn3CC(F)(F)F)nc1-2
13,< 1 µM,CC(C)(CO)NC(=O)c1ccc2c(c1)-c1nc(-c3ncnn3-c3ccccc3Cl)cn1CCO2
14,< 1 µM,CC(C)(CO)NC(=O)c1ccc2c(c1)OCCn1cc(-c3ncnn3-c3ccccc3Cl)nc1-2
15,< 1 µM,Cc1n[nH]c(-c2cn3c(n2)-c2ccc(-c4cnn(CCO)c4)cc2OCC3)n1
16,< 1 µM,CC(C)n1ncnc1-c1cn2c(n1)-c1cc(-c3ccc(=O)[nH]c3)ncc1OCC2
17,< 1 µM,CC(C)n1ncnc1-c1cn2c(n1)-c1cnc(OC(C)(C)C(N)=O)cc1OCC2
18,< 1 µM,Cc1nc(-c2cn3c(n2)-c2ccc(CCC(N)=O)cc2OCC3)n(C(C)C)n1
19,< 1 µM,CC(C)(O)Cn1cc(-c2ccc3c(c2)OCCn2cc(C(=O)N4CCS(=O)(=O)CC4)nc2-3)cn1
20,< 1 µM,CC(C)n1ncnc1-c1cn2c(n1)-c1ccc(OCC3(N)COC3)cc1OCC2
21,< 1 µM,OCCN1CCC(c2ccc3c(c2)-c2nn(-c4ncnn4-c4ccc(F)cc4F)cc2CCO3)CC1
22,< 1 µM,CC(C)n1ncnc1-c1cn2c(n1)-c1ccc(N)cc1OCC2
23,< 1 µM,CC(C)n1ncnc1-c1cn2c(n1)-c1ccc(C3CCN(CC(F)(F)F)CC3)cc1OCC2
